Where two headings read alike, the source gives them in different places.

The source of these data is article PMC9820167, “Design and Synthesis of Conformationally Flexible Scaffold as Bitopic Ligands for Potent D3-Selective Antagonists” (International Journal of Molecular Sciences, 2022).

The target of assay [1] is Serotonin 5-HT1D (Homo sapiens, UniProt P28221). The assay is described as follows: PDSP binding screen.
Assay [2] has as its target Serotonin 5-HT7A (Homo sapiens, UniProt P34969). The assay is described as follows: PDSP binding screen. The conditions noted are these: read-out: Ki (nM) or % inhibition at 10 µM: 5-HT7A.
Assay [3] deals with T1, Adrenergic alpha1B (Homo sapiens, UniProt P35368).
T1 sequence (P35368 1-520): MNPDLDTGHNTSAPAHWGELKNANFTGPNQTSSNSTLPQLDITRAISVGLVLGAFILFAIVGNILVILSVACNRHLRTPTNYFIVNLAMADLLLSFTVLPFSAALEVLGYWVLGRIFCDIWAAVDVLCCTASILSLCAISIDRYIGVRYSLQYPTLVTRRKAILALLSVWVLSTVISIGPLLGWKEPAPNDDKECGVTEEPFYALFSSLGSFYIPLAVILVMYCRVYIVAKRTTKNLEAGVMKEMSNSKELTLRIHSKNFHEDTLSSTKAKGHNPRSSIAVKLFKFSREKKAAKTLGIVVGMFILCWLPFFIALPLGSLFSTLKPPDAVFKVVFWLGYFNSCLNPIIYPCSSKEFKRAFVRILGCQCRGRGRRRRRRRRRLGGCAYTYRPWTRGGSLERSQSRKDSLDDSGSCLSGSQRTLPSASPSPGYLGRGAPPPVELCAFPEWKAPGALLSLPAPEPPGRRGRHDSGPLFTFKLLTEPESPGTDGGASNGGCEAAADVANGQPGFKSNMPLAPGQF
Description: PDSP binding screen. The conditions noted are these: for inhibition at 10 µM: read-out: Ki (nM) or % inhibition at 10 µM: alpha1B.

Assay [4] has as its target T2, Adrenergic alpha1D (Homo sapiens, UniProt P25100).
T2 sequence (P25100 1-572): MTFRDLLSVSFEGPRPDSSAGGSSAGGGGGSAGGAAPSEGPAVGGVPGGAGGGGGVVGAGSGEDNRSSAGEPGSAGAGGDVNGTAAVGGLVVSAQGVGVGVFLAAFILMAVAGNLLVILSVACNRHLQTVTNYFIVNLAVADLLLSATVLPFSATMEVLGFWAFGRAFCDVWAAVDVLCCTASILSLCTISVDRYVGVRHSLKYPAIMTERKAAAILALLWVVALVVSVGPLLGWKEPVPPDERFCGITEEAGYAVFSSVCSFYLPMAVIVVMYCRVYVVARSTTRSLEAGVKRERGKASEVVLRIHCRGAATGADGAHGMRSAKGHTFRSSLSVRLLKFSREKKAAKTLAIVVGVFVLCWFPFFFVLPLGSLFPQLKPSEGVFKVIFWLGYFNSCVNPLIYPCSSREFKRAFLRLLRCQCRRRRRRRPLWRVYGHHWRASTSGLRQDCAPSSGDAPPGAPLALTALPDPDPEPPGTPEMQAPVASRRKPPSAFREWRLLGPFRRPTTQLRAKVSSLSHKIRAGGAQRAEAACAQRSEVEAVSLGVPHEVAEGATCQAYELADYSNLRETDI
The assay is described as follows: PDSP binding screen. The conditions noted are these: for inhibition at 10 µM: read-out: Ki (nM) or % inhibition at 10 µM: alpha1D.

For assay [5], the target named is Dopamine D1 (Homo sapiens, UniProt P21728). The assay is described as follows: PDSP binding screen. The conditions noted are these: for inhibition at 10 µM: read-out: Ki (nM) or % inhibition at 10 µM: D1.
The target of assay [6] is Dopamine D5 (Homo sapiens, UniProt P21918). The assay is described as follows: PDSP binding screen. Conditions: for inhibition at 10 µM: read-out: Ki (nM) or % inhibition at 10 µM: D5.
The target in assay [7] is Histamine H2 (Homo sapiens, UniProt P25021). The assay is described as follows: PDSP binding screen. The conditions noted are these: for inhibition at 10 µM: read-out: Ki (nM) or % inhibition at 10 µM: H2.
Assay [8] has as its target Histamine H3 (Homo sapiens, UniProt Q9Y5N1). Description: PDSP binding screen. Conditions: for inhibition at 10 µM: read-out: Ki (nM) or % inhibition at 10 µM: H3.
In assay [9] the target is Histamine H4 (Homo sapiens, UniProt Q9H3N8). Description: PDSP binding screen. Conditions: for inhibition at 10 µM: read-out: Ki (nM) or % inhibition at 10 µM: H4.
Assay [10] has as its target Muscarinic M3 (Homo sapiens, UniProt P20309). The assay is described as follows: PDSP binding screen. Conditions: for inhibition at 10 µM: read-out: Ki (nM) or % inhibition at 10 µM: M3.
The target of assay [11] is T3, Muscarinic M4 (Homo sapiens, UniProt P08173).
T3 sequence (P08173 1-479): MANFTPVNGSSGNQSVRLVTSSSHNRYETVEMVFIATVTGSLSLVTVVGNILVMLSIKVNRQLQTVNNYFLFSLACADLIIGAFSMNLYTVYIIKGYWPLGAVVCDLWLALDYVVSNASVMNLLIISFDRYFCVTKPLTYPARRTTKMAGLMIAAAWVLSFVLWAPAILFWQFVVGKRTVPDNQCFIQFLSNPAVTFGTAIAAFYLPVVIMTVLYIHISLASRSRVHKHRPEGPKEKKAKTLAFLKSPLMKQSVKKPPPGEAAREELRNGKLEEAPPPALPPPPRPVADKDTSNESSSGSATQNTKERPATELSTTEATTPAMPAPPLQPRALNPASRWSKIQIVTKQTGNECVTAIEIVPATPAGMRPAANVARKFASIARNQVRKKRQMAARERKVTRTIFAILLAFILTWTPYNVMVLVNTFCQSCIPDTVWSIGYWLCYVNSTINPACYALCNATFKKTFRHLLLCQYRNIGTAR
The assay is described as follows: PDSP binding screen. The conditions noted are these: for inhibition at 10 µM: read-out: Ki (nM) or % inhibition at 10 µM: M4.

Assay [12] has as its target Norepinephrine transporter (NET) (Homo sapiens, UniProt P23975). Description: PDSP binding screen. Conditions: for inhibition at 10 µM: read-out: Ki (nM) or % inhibition at 10 µM: Norepinephrine transporter (NET).
For assay [13], the target named is human D3 receptors (Homo sapiens, UniProt P35462). Description: β-arrestin recruitment assay (antagonist mode, competition with dopamine). In kind it is cell-based. Set-up: expressed in transfected cells. The conditions noted are these: for Emax: percentage of the maximum inhibition of dopamine at EC80 concentration, read-out: Imax (% Control). As to the method: Two different assays were used to evaluate the properties of the analogs described above. The receptor binding affinity was measured by radioligand binding assays using [^125I]IABN with D2 or D3 receptors highly expressed HEK293 cells. The functional activity of the analogs was determined using a β-arrestin recruitment assay. The assay was initially conducted in agonist binding mode to confirm that they function as antagonists at the D3 receptor. Once this efficacy was confirmed, the assay was conducted in antagonist mode to determine the ability of the antagonist to compete with dopamine at the D3 receptor. The results of the antagonist mode assay are reported as IC50 values.
CHO-K1 cells which were overexpressed human D3 receptors were cultured in assaycomplete^TM cell culture kit 107. Cells were seeded at a density of 25,000 cells per well of 96-well plate, and incubated at 5% CO2, 37 °C. Two days later, test compounds were dissolved in DMSO, and diluted with 11-point series in phosphate-buffered saline (PBS). Prepared compounds were added to the cells, and it was incubated for 30 min at 5% CO2, 37 °C. Then, cells were treated with 30 nM (EC80) of dopamine, and the plate was incubated another 90 min. PathHunter^TM detection reagent was added to each well, and then plate was incubated for 80 min at RT in the dark. The chemiluminescent signal was measured by PerkinElmer Enspire plate reader (PerkinElmer, Boston, MA). Data were analyzed by Prism followed by non-linear regression.

The mark [14] stands for this setting: potency for D3 receptors, CHO-K1 cells, vs 30 nM (EC80) dopamine, mean ± SD, three experiments, read-out: IC50.

Sequence of Serotonin 5-HT7A (P34969 1-445 isoform P34969-2): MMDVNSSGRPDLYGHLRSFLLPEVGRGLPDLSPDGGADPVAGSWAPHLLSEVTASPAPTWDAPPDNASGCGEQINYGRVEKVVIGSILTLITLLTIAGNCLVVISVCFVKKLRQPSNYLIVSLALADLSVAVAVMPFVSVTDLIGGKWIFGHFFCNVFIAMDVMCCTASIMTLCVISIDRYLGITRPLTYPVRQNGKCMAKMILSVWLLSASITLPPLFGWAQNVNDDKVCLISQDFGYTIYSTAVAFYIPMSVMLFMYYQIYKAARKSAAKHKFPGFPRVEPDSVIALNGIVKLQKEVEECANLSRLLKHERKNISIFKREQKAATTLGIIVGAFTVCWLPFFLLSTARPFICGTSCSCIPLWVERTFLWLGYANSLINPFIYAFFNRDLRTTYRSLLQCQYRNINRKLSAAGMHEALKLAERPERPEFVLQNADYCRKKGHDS
Sequence of Dopamine D5 (P21918 whole entry): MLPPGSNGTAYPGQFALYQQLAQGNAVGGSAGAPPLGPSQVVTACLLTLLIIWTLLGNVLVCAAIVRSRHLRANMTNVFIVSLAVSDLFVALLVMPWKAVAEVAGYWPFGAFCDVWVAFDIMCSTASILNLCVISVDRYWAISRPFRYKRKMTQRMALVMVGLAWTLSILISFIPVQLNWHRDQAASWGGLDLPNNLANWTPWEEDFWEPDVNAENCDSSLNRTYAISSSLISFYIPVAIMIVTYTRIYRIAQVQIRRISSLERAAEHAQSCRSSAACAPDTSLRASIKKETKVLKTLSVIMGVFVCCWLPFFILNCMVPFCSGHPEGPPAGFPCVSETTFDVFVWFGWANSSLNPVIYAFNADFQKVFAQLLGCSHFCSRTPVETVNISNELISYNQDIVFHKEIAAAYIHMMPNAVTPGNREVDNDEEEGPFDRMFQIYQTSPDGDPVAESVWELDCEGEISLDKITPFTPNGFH
Sequence of Serotonin 5-HT1D (P28221 whole entry): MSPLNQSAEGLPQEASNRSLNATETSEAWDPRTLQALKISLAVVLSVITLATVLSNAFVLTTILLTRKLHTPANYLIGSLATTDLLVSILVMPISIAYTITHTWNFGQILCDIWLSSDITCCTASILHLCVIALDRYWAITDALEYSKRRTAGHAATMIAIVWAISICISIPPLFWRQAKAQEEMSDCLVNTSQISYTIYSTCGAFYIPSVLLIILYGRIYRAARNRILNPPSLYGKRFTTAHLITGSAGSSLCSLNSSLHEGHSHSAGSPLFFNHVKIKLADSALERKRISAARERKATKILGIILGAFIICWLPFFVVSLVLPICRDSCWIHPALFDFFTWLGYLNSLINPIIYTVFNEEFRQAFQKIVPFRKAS
Sequence of Norepinephrine transporter (NET) (P23975 whole entry): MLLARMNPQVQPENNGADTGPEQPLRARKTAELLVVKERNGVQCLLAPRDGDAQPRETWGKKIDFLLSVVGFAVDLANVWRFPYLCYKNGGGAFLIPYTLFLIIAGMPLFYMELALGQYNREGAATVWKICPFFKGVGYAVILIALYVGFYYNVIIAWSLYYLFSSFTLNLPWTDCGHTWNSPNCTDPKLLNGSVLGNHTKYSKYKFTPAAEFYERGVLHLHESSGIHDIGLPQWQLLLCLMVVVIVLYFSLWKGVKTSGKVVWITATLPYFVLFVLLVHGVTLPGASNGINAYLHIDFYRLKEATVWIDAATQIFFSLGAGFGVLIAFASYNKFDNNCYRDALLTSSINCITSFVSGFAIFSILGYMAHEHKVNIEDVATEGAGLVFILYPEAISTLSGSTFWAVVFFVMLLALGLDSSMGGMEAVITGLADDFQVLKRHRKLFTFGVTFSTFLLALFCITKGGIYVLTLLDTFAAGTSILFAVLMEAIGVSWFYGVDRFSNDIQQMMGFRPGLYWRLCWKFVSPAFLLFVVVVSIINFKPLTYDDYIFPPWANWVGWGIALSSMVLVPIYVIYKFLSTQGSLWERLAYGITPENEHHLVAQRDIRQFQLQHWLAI
Sequence of Histamine H2 (P25021 whole entry): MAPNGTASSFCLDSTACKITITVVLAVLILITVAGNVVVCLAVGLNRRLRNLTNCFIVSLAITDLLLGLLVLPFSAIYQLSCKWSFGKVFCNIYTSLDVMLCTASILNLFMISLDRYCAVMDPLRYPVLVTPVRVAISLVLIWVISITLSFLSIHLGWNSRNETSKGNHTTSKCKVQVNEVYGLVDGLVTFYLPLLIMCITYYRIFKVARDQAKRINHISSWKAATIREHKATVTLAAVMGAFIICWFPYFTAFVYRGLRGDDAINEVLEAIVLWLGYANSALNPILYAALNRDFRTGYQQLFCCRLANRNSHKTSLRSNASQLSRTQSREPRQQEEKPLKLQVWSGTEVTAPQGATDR
Sequence of Muscarinic M3 (P20309 whole entry): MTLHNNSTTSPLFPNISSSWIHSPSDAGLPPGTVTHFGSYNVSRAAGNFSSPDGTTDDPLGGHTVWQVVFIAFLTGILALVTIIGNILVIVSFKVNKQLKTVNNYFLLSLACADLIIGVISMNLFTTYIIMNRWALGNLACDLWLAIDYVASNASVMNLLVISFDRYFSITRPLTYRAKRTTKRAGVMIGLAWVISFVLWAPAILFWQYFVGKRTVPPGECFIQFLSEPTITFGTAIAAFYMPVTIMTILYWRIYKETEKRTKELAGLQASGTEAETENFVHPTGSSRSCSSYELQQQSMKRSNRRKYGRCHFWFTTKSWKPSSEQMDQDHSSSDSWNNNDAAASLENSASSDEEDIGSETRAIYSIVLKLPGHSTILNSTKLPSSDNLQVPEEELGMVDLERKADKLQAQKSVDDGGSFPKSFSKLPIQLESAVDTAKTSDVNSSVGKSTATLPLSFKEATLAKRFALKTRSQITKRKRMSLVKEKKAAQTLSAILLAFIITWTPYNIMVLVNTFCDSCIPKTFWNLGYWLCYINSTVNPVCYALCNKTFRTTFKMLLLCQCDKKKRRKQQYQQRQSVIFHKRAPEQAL
Sequence of human D3 receptors (P35462 whole entry): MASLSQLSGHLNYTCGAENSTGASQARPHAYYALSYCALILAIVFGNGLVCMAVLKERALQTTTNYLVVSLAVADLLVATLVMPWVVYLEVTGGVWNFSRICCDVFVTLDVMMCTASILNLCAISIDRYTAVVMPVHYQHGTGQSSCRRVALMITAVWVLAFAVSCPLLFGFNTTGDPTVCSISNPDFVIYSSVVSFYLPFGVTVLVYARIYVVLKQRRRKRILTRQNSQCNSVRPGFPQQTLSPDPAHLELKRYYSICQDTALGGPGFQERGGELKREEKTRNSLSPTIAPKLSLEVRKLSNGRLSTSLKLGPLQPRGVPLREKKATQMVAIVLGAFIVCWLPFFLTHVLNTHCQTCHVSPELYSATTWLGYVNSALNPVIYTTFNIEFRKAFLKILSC
Sequence of Dopamine D1 (P21728 whole entry): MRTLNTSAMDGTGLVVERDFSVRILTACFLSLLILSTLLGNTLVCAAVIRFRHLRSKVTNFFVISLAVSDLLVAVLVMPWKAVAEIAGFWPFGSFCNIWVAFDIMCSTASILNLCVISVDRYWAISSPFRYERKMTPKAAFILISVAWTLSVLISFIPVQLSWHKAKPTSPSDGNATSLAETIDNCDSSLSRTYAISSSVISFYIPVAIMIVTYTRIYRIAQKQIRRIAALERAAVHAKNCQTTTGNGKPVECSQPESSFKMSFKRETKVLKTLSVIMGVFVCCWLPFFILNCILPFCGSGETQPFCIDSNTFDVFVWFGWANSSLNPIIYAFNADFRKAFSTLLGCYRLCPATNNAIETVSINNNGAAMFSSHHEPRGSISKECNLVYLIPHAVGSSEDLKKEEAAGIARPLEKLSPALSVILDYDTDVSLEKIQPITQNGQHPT
Sequence of Histamine H3 (Q9Y5N1 whole entry): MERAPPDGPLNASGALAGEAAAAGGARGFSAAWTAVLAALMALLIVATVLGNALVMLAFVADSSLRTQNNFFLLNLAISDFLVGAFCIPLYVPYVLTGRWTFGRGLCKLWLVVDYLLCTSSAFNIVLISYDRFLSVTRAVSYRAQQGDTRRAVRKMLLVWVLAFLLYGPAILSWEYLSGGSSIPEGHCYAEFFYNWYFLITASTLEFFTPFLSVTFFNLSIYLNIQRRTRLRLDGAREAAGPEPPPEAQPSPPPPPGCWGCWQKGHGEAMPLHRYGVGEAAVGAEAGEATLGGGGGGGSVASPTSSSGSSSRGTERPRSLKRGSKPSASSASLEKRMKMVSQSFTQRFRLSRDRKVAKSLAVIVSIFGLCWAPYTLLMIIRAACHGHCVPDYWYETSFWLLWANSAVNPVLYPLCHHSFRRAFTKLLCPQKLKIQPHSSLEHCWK
Sequence of Histamine H4 (Q9H3N8 whole entry): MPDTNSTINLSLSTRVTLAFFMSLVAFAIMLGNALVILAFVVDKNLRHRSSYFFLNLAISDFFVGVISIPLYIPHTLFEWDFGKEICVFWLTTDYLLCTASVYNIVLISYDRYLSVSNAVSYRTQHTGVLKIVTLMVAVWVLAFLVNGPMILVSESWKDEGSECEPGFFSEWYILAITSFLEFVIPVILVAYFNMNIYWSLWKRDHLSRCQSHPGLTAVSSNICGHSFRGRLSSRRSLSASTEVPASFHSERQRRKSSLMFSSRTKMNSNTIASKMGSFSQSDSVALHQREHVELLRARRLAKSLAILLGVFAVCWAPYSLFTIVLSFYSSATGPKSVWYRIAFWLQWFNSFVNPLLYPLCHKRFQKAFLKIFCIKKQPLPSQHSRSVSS

Usually Ki stands for a measure of affinity in units of concentration, obtained from inhibition or displacement. What is called inhibition is the share of the control response that was lost under treatment. What is called IC50 is the point on the concentration scale where inhibition reaches its midpoint. For the compound `CCN(CCCNC(=O)c1ccc(-c2cccs2)cc1)CCNC(=O)c1cc(Br)cc(OC)c1OC` [9a, 5-Bromo-N-(2-(ethyl(3-(4-(thiophen-2-yl)benzamido)propyl)amino)ethyl)-2,3-dimethoxybenzamide], the Ki was 1010 nM in assay [1]; 2190 nM in assay [3]; 2560 nM in assay [4]; 2400 nM in assay [5]; 1470 nM in [6]; 2610 nM in assay [7]. Besides, the inhibition constant Ki in assay [8] was found to be 5580 nM; in [9] it was 6420 nM; in [10], 4750 nM; in [11], 1600 nM; in assay [12], 772 nM. The inhibition at 10 µM in [2] was less than 50%. Also, the IC50 in [13] turned out to be 14 ± 7.4 nM. The Emax in assay [13] is 67.3 ± 18.9%.

For `CCCN(CCCNC(=O)c1ccc(-c2cccs2)cc1)CCNC(=O)c1cc(Br)cc(OC)c1OC` [20a, 5-Bromo-2,3-dimethoxy-N-(2-(propyl(3-(4-(thiophen-2-yl)benzamido)propyl)amino)ethyl)benzamide], the Ki in assay [1] is 449 nM; in assay [3], 1400 nM; in assay [4], 2420 nM; in assay [5], 4290 nM; in [7], 1650 nM; in assay [9] it was 3460 nM. The Ki in assay [12] was determined as 3510 nM. The inhibition at 10 µM in assay [2], in assay [6], in [8], in assay [10] and in assay [11] was less than 50% throughout. The Emax in [13] stood at 88.1 ± 20.4%. In addition, the half-maximal inhibitory concentration (IC50) in [13] (setting [14]) came out at 26.5 ± 12.9 nM.

Turning to `CCN(CCCNC(=O)c1ccc2ccccc2c1)CCNC(=O)c1cc(Br)cc(OC)c1OC` [21a, N-(3-((2-(5-Bromo-2,3-dimethoxybenzamido)ethyl)(ethyl)amino)propyl)-2-naphthamide], the Ki in [1] is 1200 nM; in assay [3], 3940 nM; in assay [7], 2790 nM; in [10] it was 1260 nM; in assay [12] it was 391 nM. The inhibition at 10 µM in assay [2], in [4], in assay [5], in [6], in assay [8] and in assay [9] was less than 50% in each case. The inhibition at 10 µM in [11] was less than 50%. Further, in assay [13], the Emax was 66.1 ± 17.6%. Also, the half-maximal inhibitory concentration (IC50) in assay [13] (setting [14]) is 16.4 ± 7.7 nM.

`CCN(CCCNC(=O)c1ccc(-c2ccncc2)cc1)CCNC(=O)c1cc(Br)cc(OC)c1OC` [21c, 5-Bromo-N-(2-(ethyl(3-(4-(pyridin-4-yl)benzamido)propyl)amino)ethyl)-2,3-dimethoxybenzamide]: the Ki in assay [1] was 1150 nM; in assay [6] it was more than 10000 nM; in assay [8], 4720 nM; in assay [11] it was 930 nM. Also, the inhibition at 10 µM in [2], in assay [3], in [4], in assay [5], in assay [7] and in [9] was less than 50% in each case. For the same compound, the inhibition at 10 µM in [10] and in assay [12] was less than 50% each time. Besides, the Emax in assay [13] was 78.2 ± 18%. Besides, the IC50 in [13] (setting [14]) turned out to be 1.3 ± 1 nM.

As for `CCN(CCCNC(=O)c1cc2ccccc2[nH]1)CCNC(=O)c1cc(Br)cc(OC)c1OC` [21d, N-(3-((2-(5-Bromo-2,3-dimethoxybenzamido)ethyl)(ethyl)amino)propyl)-1H-indole-2-carboxamide], the Ki in assay [1] is 1660 nM; in [3], more than 10000 nM; in assay [4], 7310 nM; in assay [8], more than 10000 nM; in assay [12], 842 nM. For the same compound, the inhibition at 10 µM in assay [2], in assay [5], in [6], in assay [7], in assay [9] and in assay [10] was less than 50% each time. Moreover, the inhibition at 10 µM in [11] was less than 50%. Moreover, in assay [13], the Emax turned out to be 57.7 ± 26.9%. The half-inhibitory concentration (IC50) in assay [13] (setting [14]) came out at 9.3 ± 12 nM.

Turning to `CCN(CCCNC(=O)c1cn2ccccc2n1)CCNC(=O)c1cc(Br)cc(OC)c1OC` [21e, N-(3-((2-(5-Bromo-2,3-dimethoxybenzamido)ethyl)(ethyl)amino)propyl)imidazo[1,2-a]pyridine-2-carboxamide], the inhibition at 10 µM in assay [1] (read-out: Ki (nM) or % inhibition at 10 µM: 5-HT1D), in [2], in assay [3], in [4], in assay [5] and in assay [6] was less than 50% in each case. Also, the inhibition at 10 µM in assay [7], in [8], in assay [9], in assay [11] and in assay [12] was less than 50% each time. In addition, the Ki in assay [10] was found to be 1550 nM. In assay [13], the Emax worked out at 85.4 ± 6%. In addition, the IC50 in assay [13] (setting [14]) is 4.3 ± 2.5 nM.
